Measured values from PMC3139667, “A Screen against Leishmania Intracellular Amastigotes: Comparison to a Promastigote Screen and Identification of a Host Cell-Specific Hit” (PLoS Neglected Tropical Diseases, 2011).
“Also recorded” adds a separate entry of the source. Structures can show the parent of a compound that is named as a salt. Where two headings read alike, the source gives them in different places.

Assays:
[1] = system: L. donovani promastigotes; test: Promastigote high-throughput ATP-bioluminescence assay; format: cell-based, Leishmania donovani; conditions: for GI50: 72 h at 27°C, CellTiter-Glo, read-out: GI50 Promastigote
Protocol: L. donovani promastigotes from an exponentially growing culture were diluted to 10^6/ml in RPMI containing 10% FBS and 10% BHT. The diluted culture (99 µl/well) was dispensed in sterile 96-well flat white opaque assay plates (Greiner Bio-One) using a WellMate multichannel dispenser (Matrix). 1 µl of 1 mM test compound dissolved in DMSO was added to the plates for a final concentration of 10 µM compound and 1% DMSO. Amphotericin B was added as a positive control (final concentration 2 µM, 1% DMSO) and as a negative control, 1 µl DMSO was added (1% final concentration). Compounds and controls were added to the assay plate with the robotic dispenser Biomek FXp liquid handler (Beckman Coulter). Promastigotes were incubated with the compounds for 72 h at 27°C. The parasites were then lysed by adding 50 µl of CellTiter-Glo (Promega) and placed on an orbital shaker for 5 min at room temperature. After lysis, the resulting ATP-bioluminescence was measured using the Analyst HT plate reader (Molecular Devices). Percentage inhibition of parasite growth was calculated for each well as [1-(RLUx-RLU^+)/(RLU^--RLU^+)]*100 where RLUx, RLU^+ and RLU^- are respectively the Relative Light Units for each well, positive (amphotericin B) and negative (DMSO) controls. A screening window coefficient, denoted Z' factor, was used to evaluate the performance of the assay. The Z' factor, calculated as 1-(3σc++3σc−)/(µc+−µc−) where σc+, σc−, µc+ and µc− are respectively the standard deviation and mean values of positive and negative controls, is reflective of the assay signal dynamic range and the data variation associated with signal measurement. […] GI50 curve fitting was carried out using GraphPad Prism 4 Software (GraphPad Software Inc., San Diego, CA).

[2] = system: L. donovani axenic amastigotes; test: Dose response study against axenic amastigotes (CellTiter-Glo); format: cell-based, Leishmania donovani; conditions: for GI50: 72 h at 37°C, CellTiter-Glo, read-out: GI50 Axenic amastigote
Protocol: L. donovani axenic amastigotes (5×10^5 cells/ml in axenic amastigote media) were dispensed in sterile 96-well flat white opaque assay plates (Greiner Bio-One) using a WellMate multichannel dispenser (Matrix). […] 1% DMSO and amphotericin B (2 µM, 1% DMSO final concentration) were added as negative and positive controls respectively. Axenic amastigotes were incubated with the compounds for 72 h at 37°C with 5% CO2. Parasite viability was then measured using CellTiter-Glo as described above.

[3] = system: L. donovani intracellular amastigotes; test: Intracellular amastigote high-throughput image-based assay in infected THP-1 macrophages; format: cell-based, Leishmania donovani; conditions: for GI50: L. donovani in THP-1, 72 h, parasites per host cell, read-out: GI50 Intracellular amastigote
Protocol: (§1) Sterile, black, 96-well, clear bottom plates (Greiner Bio-One) were seeded with exponentially growing THP-1 (5×10^5cells/ml). THP-1 were treated with 0.1 µM phorbol myristate acetate (PMA, Sigma) at 37°C for 48 h to achieve differentiation into adherent, non-dividing macrophages. Maturation of THP-1 cells towards monocyte-macrophage like cells is essential to avoid parasitized cells being overgrown by replicating cells. After activation by PMA, cells were washed and incubated with complete RPMI medium containing stationary phase L. donovani promastigotes at a macrophage/promastigote ratio of 1/15. After 4 h incubation at 37°C, non-internalized promastigotes were removed by 2–3 successive washes with RPMI containing 5% FBS and 5% horse serum. Test compounds (10 µM), positive control (2 µM amphotericin B) or negative control (1% DMSO) were then added to the cultures using a Biomek FXp liquid handler (Beckman Coulter). Cultures were incubated at 37°C for 72 h. Cells were then washed with phosphate-buffered saline (PBS), fixed for 30 minutes with 4% formaldehyde, rinsed again with PBS, stained for 2 h with 4′,6′-diamidino-2-phenylindole (DAPI 300 nM) and finally washed with PBS. […] Images were acquired with an INCell Analyzer 1000 automated epi-fluorescent microscope (G.E. Healthcare). The excitation and emission filters used to detect DAPI were 350/50 nm and 460/40 nm respectively. Eight image fields were acquired per well with a 20X objective. The proprietary INCell Developer Toolbox 1.7 software was used for image analysis. Segmentation parameters were set to identify host nuclei with a minimum area of 250 µm^2 and parasite kinetoplast with an average area of 1 µm^2. The intensity of parasite nucleus was too low to be detected with a 20X objective. A border, representing the boundary of the cell, was drawn around the nucleus (total area between 700 and 2000 µm^2). Only parasites found within this area were included in the calculation to eliminate extracellular parasites. False positive parasite detection in the nucleus was also excluded from the calculation. Host cell nuclei and parasite kinetoplasts were counted and the ratio of parasites DNA to host nuclei was selected as the measurement output. Percentage inhibition of parasite growth was calculated as [1-(P/hcx-P/hc^+)/(P/hc^−-P/hc^+)]*100 where P/hcx, P/hc^+ and P/hc^− are parasite per host cell ratio for every well, positive control (amphotericin B) and negative control (DMSO) respectively. Calculation of Z' factor and GI50 curve fitting were carried out as described above.

THP-1 = test: Host cell toxicity: THP-1 host nuclei counts in the image-based assay; conditions: for GI50: read-out: GI50 THP-1; for Selectivity: ratio between parasite GI50 and THP-1 GI50
Protocol: as §1

[4] = Leishmania donovani, THP-1, 72 h
[5] = ratio between promastigote GI50 and intracellular amastigote GI50, >2 more active against intracellular amastigote, <0.4 more active against promastigotes
[6] = 10 µM, duplicates, hit = 60% parasite growth inhibition and not more than 20% reduction in THP-1 numbers
[7] = PMA-differentiated infected THP-1, 72 h, host nuclei count

Structure (SMILES) | GI50 ([1]; Leishmania donovani) [µM] | GI50 ([2]; Leishmania donovani) [µM] | GI50 [3, 4] [µM] | Specificity [3, 5] | GI50 (THP-1; Homo sapiens, THP-1, 72 h) [µM] | Selectivity (THP-1) | Activity against promastigotes (in words) ([1]; dose response, up to 50 µM) | Activity against axenic amastigotes (in words) ([2]; dose response, up to 50 µM) | Primary screen against intracellular amastigotes, hit selection [3] | Specificity [3] | GI50 [3] [µM] | GI90 intracellular amastigote ([3]; curative concentration) [µM] | GI90 THP-1 (THP-1) [µM] | Primary screen against intracellular amastigotes, hit selection [3, 6] | GI50 [1] [µM] | GI50 [2] [µM] | GI50 (THP-1; [7]) [µM]
CN1C[C@H](CNC(=O)OCc2ccccc2)C[C@@H]2c3cccc4c3c(cn4C)C[C@H]21 [Metergoline] | 15.1 | > 50 | 0.78 | 19.17 | 37.1 | 47.22 |  |  |  |  |  |  |  |  |  |  | 
Clc1ccc(COC(Cn2ccnc2)c2ccc(Cl)cc2Cl)c(Cl)c1 (centres unmarked) [Miconazole] | 7.48 | 4.73 | 15.4 | 0.48 | > 16.5 | 1.07 |  |  |  |  |  |  |  |  |  |  | 
C=CCN1CC[C@]23c4c5ccc(O)c4O[C@H]2/C(=N/N=C2\CC[C@@]4(O)[C@H]6Cc7ccc(O)c8c7[C@@]4(CCN6CC=C)[C@H]2O8)CC[C@@]3(O)[C@H]1C5 [Naloxonazine] | > 50 | > 50 | 3.45 |  | 33.8 | 9.68 | no activity; also recorded: completely inactive | no activity | complete specificity for the intracellular amastigote stage | 14.32 | 3.49 | 12.5 | 50 |  |  |  | 
COC(=O)C1=C(C)NC(C)=C(C(=O)OCC(C)C)C1c1ccccc1[N+](=O)[O-] (centres unmarked) [Nisoldipine] | 9.85 | 13.9 | 32.2 | 0.30 | > 16.5 | 1.67 |  |  |  |  |  |  |  |  |  |  | 
C=C1C(=O)O[C@H]2[C@H]1CC/C(C)=C/CC[C@@]1(C)O[C@@H]21 [Parthenolide] | 15.5 | 4.35 | > 50 | 0.31 | > 16.5 | 1.06 |  |  |  |  |  |  |  |  |  |  | 
N=C(N)c1ccc(OCCCCCOc2ccc(C(=N)N)cc2)cc1 [Pentamidine Isethionate] | 1.69 | 1.64 | 9.55 | 0.17 | > 50 | 29.49 |  |  |  |  |  |  |  | active |  |  | 
COc1cc2nc(N3CCN(C(=O)c4ccco4)CC3)nc(N)c2cc1OC.Cl [Prazocin Hydrochloride] |  |  |  |  |  | 3.46 |  |  |  | 2.48 | 6.73 |  |  |  | 16.7 | > 50 | 23.3
CN1CCc2cccc3c2[C@H]1Cc1ccc(O)c(O)c1-3 [R(-)-Apomorphine] |  |  |  |  |  | 6.1 |  |  |  | 14.12 | 2.7 |  |  |  | 38.1 | 5.2 | > 16.5
CC[C@@H](C(=O)[C@@H](C)[C@@H](O)[C@H](C)[C@@H]1O[C@@H]([C@@H](CC)C(=O)O)CC[C@@H]1C)[C@H]1O[C@]2(C=C[C@@H](O)[C@]3(CC[C@@](C)([C@H]4CC[C@](O)(CC)[C@H](C)O4)O3)O2)[C@H](C)C[C@@H]1C [Salinomycin] | 2.71 | 0.06 | 0.92 |  | 16.1 | 17.30 |  |  |  | 2.92 |  |  |  |  |  |  | 
CC/C(=C(\c1ccccc1)c1ccc(OCCN(C)C)cc1)c1ccccc1 [Tamoxifen Citrate] | 10.2 | > 50 | 20.8 | 0.49 | > 16.5 | 1.61 |  |  |  |  |  |  |  | active |  |  | 
CCOc1ccccc1OCCN[C@H](C)Cc1ccc(OC)c(S(N)(=O)=O)c1 [Tamsulosin] | 20 | > 50 | 6.3 | 3.17 | 28 | 4.43 |  |  |  |  |  |  |  |  |  |  | 
